A melting point compilation (Tetko et al.; mined from patent text by program, amines drawn as free bases though some values may be those of a salt)

Compound | melting point [°C]
Cc1ccnc(-c2ccc(Br)cc2)c1 | 126
CCCCCCCCC1COC(c2ccc(O)cc2)OC1 (stereo not drawn) | 96 to 97
COC(=O)C(NS(=O)(=O)c1ccc(-c2ccc(NC(=O)c3oc4cccc(C5COC(C)(C)O5)c4c3C)cc2)cc1)C(C)C (stereo not drawn) | 192 to 194
CCc1ccc(OCCCCCN2CCN(c3nccs3)CC2)cc1 | 125 to 127
O=S1(=O)NCN(CCF)c2cc(F)c(F)cc21 | 128 to 130
N#Cc1ccc(-c2ccno2)cc1 | 148 to 149
Oc1ccc2c(c1)CCNC21CCSCC1 | 211 to 213
CC(C)CC(=O)Nc1nc(-c2ccccc2)c(-c2ccc(=O)n(C(C)C)n2)s1 | 198 to 199
N#Cc1cc(-c2nccs2)[nH]c1C(CC1CCOCC1)c1ccc(S(=O)(=O)C2CC2)cc1 (stereo not drawn) | 114 to 116
N#Cc1ccc(N2Cc3ccccc3C2)c2ccccc12 | 156 to 158
C=CCN(c1ncnc2c1ncn2CCCCCCCCC(=O)O)C1CCCCC1 | 100 to 102
O=C1NCCc2c(-c3ccc(Cl)cc3)[nH]c3cccc1c23 | 250 to 252
CCCC/C=C\CCCCCCCCCC1=CC(=O)C=C(OC)C1=O | 39.5 to 41.5
O=Cc1ncn2c1[C@@H]1CCCN1C(=O)c1ccccc1-2 | 206 to 208
ON=Cc1ccc(-c2ccc(O)cc2)c2occc12 | 216 to 217
CCn1cc(C(=O)Cl)c(=O)c2ccc(Cl)nc21 | 186 to 188
CC1(C)C(=O)N(c2ccc(C#N)c(C(F)(F)F)c2)C(=S)N1CCCCO | 78 to 79
CCCCN(O)C1CC(C)(C)N(C(C)=O)C(C)(C)C1 | 52 to 54
Cc1cc(SC(C)C)c(NC(=O)CCCCCSc2nc3c(C)c(Cl)cc(C(C)C)c3o2)c(SC(C)C)n1 | 99 to 101
CNC(=O)c1cc2c(Oc3ccc(C(F)(F)F)cc3)cnc(Cl)c2s1 | 178 to 179
OC(Cc1ccccn1)c1ccccc1 (stereo not drawn) | 105 to 107
CC(=O)OCC(=O)C1(O)C(C)CC2C3CCC4CC(=O)CCC4(C)C3CCC21C (stereo not drawn) | 125
COC(=O)C(Oc1ccc(F)cc1)c1ccc(Oc2ccc(S(C)(=O)=O)cc2)cc1 (stereo not drawn) | 135 to 137
Fc1cc(-c2ccno2)c(Cl)cc1Cl | 112 to 113

Further lines, results first:

melting point [°C] | Compound
184 to 186 | Cc1ccc(C(=O)NC(NC(=S)Nc2cccnc2)C(C)C)cc1 (stereo not drawn)
187 to 188 | CC(=O)Nc1c(C(=S)c2ccc(C)cc2)[nH]c2cc(Cl)ccc12
145 | CC(C)(C)OC(=O)Nc1ccccc1O
171 to 174 | COc1ccc(NC(=S)NCCO)c(C)c1
104 to 105 | CCN(CC)CCCNC(=O)Cn1ncc(-c2ccc(Cl)cc2)c1-c1ccccc1
194 to 195 | CCc1c(-c2ccc(O)cc2)c2cc(C(C)=O)c3ccc(CO)c1n32
150 | CC(Oc1ccc(Nc2cnc3cc(Cl)ccc3c2)cc1)C(=O)O (stereo not drawn)
188 | COc1ccc(-c2cc3ccccc3[nH]2)cc1OC
164 to 165 | Cc1cc2ccc(/C=C/C(=O)OCc3ccccc3)cc2[nH]1
146 | CCOc1ccc2[nH]c(=O)n(C34CC5CC(CC(C5)C3)C4)c2c1
175 to 178 | COc1ccc(-c2ccc3c(c2)C=C(C(=O)Nc2ccc(CN(C)C4CCOCC4)cc2)CCS3(=O)=O)c(OC)c1
263 to 265 | Cc1ccc2nc(CCl)[nH]c(=O)c2c1
116 to 117 | COc1cc(OC)c2ccccc2c1OC(C)=O
81 to 83 | COc1ccc(C=CC(=O)c2ccccc2O)cc1
45 to 53 | COc1ccc2cc(CNCc3ccccc3)ccc2c1
127 to 129 | CCOC(=O)CCCNC(=O)Cn1c(-c2cccc(Cl)c2)nc2cccnc21
95 to 97 | COc1ccc(Cc2cnc(NCCSCc3nccs3)[nH]c2=O)cn1
252 | COC(=O)C(=O)c1cc(O)c(O)c(C#N)c1
90 to 92 | CC(C)(C)NCC(O)COc1ccc(OCC2CC2)cc1 (stereo not drawn)
